Where two headings read alike, the source gives them in different places. Each block holds one molecule with its values, some of them ahead of it.
Columns and labels:
[1] = Catalase activity by pressure monitoring of evolved O2; format: biochemical; details: 25°C, pH 7.5
Experimental: The quantification of the evolved oxygen is frequently used to evaluate the catalase activity. − In this work, the amount of gas evolved during the reaction of the Fe^2+–^ COOH PyNMe 3 complex with hydrogen peroxide was monitored by measuring the pressure changes over time using a previously calibrated Man on the Moon X104 gas evolution kit. For that purpose, 2.5 mL of an aqueous solution of the complex at concentrations of (0.5–2.7) × 10^–4 M buffered at pH 7.5 with TRIS (50 mM) was prepared inside a glovebox, placed in a closed reaction vessel, and purged with nitrogen. Once the pressure readings were stabilized, 0.2–1.2 mL of a 0.12 M aqueous solution of H2O2 (also prepared in TRIS 50 mM at pH 7.4) was added, and the pressure was then measured as a function of time. A blank experiment was conducted with a complex-free solution of a 50 mM TRIS solution with hydrogen peroxide at pH 7.4, where no O2 evolution was detected. The same result was obtained for blank experiments, including also the ligand but not the metal ion or the free metal ion (i.e., Fe^2+, Fe^3+, or Cu^2+) in the absence of the ligand (see Entries 8–12 in Table ). […] Nevertheless, the possible formation of small amounts of CO2, which would introduce a small error in the estimation of evolved O2, cannot be completely ruled out.

[2] = set-up: method as in footnotes c–f, numbers not given; details: Cu2+ complexes/salt/enzyme, literature data for comparison; ref footnotes c–f, numbers not given; cited from earlier work
[3] = Stability constants and speciation of Cu2+ complexes by potentiometric measurements; format: physicochemical; details: for pCu: calculated for theoretical solutions
Experimental: (§1) Caution! Perchlorate salts are explosive and should be handled with care; such compounds should never be heated as solids. The potentiometric titrations were carried out at 298.1 ± 0.1 K using 0.15 M NaClO4 as the supporting electrolyte. The experimental procedure (buret, potentiometer, cell, stirrer, microcomputer, etc.) has been fully described elsewhere. The acquisition of raw potentiometric data was performed with the computer program PASAT. The reference electrode was a Ag/AgCl electrode in a saturated KCl solution. The glass electrode was calibrated as a hydrogen-ion concentration probe by titration of previously standardized amounts of HCl with CO2-free NaOH solutions, and the equivalent point was determined by Gran’s method, , which gives the standard potential, E̊, and the ionic product of water (pK w = 13.73(1)). The computer program […] was used to calculate the protonation and stability constants. The HYSS program was used to obtain the distribution diagrams. The pH range investigated by using this technique was 2.5–11.0, in accordance with the linear response range of glass electrodes. The solutions were extensively deaerated with an argon flow before the potentiometric runs. A moderate argon flow was maintained throughout the course of the titrations. The different titration curves for each system (at least two) were treated either as a single set or as separate curves without significant variations in the values of the stability constants. Finally, the sets of data were merged and treated simultaneously to give the final stability constants.

[4] = McCord–Fridovich nitroblue tetrazolium (NBT) SOD activity assay; format: biochemical; details: for SOD activity of the Fe2+ complexes (in words): NBT method, under the conditions of this study; for increase in the SOD catalytic constant of the Cu2+ complex on functionalization of the pyridine: relative to Cu2+ complexes of HPyNH3 or HPyNMe3
Excerpt: First, the SOD activity of the complexes was studied by means of the nitroblue tetrazolium (NBT) method, also known as McCord–Fridovich method. This is a widely used, indirect method based on the side production of superoxide anions by the xanthine oxidase enzyme and their capture by the NBT dye to give formazan. − A compound displaying SOD activity decreases the flow of superoxide radical anions and, thereby, the production of formazan (see the representation of the fitting of the data in Figures and S13–S16). Thus, by following the absorption band of formazan at 560 nm, the SOD activity of the studied mimetic can be quantified. Blank experiments were recorded with the ligands alone without observing any effect. The values of IC50, defined as the amount of the compound necessary for achieving 50% inhibition of NBT reduction to formazan by the superoxide anion, together with the catalytic constants (k cat), were obtained as indicated in the Experimental Section and are summarized in Table .
The SOD-like activity was determined by using the nitroblue tetrazolium (NBT) method, which despite its limitations is frequently used to estimate the activity of SOD mimetics. − The assays were carried out in a pH = 7.4 50 mM HEPES buffer at 298 K. The xanthine (2.2 × 10^–4 M) and xanthine oxidase (ca. 3 UN) system was used to generate a reproducible and constant flux of superoxide anions. […] Data in the absence of the complex were used as a reference. […] The percentage of inhibition of the NBT reduction to formazan was used as a measure of the SOD activity of the compounds. The concentration of the complex required to yield 50% inhibition of NBT reduction (IC50) was determined from a plot of percentage inhibition versus complex concentration. The IC50 data were calculated from the mean values of (at least) three independent measurements. The catalytic constant was calculated from the IC50 using the equation k cat = k NBT[NBT]/IC50 where k NBT = (5.94 ± 0.5) × 10^4 M^–1 s^–1. −

[5] = 0.15 M NaClO4, 298.1 K; ref footnote c, number not printed; cited from earlier work
[6] = 0.15 M NaClO4, 298.1 K, ref footnote c, number not printed, cited from earlier work
[7] = Protonation constants by potentiometric and UV–vis titrations; format: physicochemical
Experimental: as §1
The solvents used were of spectroscopic or equivalent grade. Water was twice distilled and passed through a Millipore apparatus. The pH values were measured with a Metrohm 713 pH meter, and adjustments of the hydrogen-ion concentration of the solutions were made with diluted HCl and NaOH solutions. UV–vis absorption spectra were recorded between pH 2 and 11 with an Agilent 8453 spectrometer. The resulting data from the titrations were used to calculate the third protonation constant of ^ COOMe PyNMe 3 . For this, the HypSpec program was employed, considering all of the absorbance intensities in the range of 250 and 350 nm.

[8] = Stability constants and speciation of Fe2+ complexes by potentiometric measurements; format: physicochemical; details: for pFe: calculated for theoretical solutions
Experimental: as §1

[9] = entry 10: no ligand, [Cu2+]0 2.7 × 10^–4 M as Cu(ClO4)2, [H2O2]0 4.3 × 10^–2 M
[10] = entry 8: no ligand, [Fe2+]0 2.14 × 10^–4 M as Fe(SO4), [H2O2]0 3.4 × 10^–2 M
[11] = entry 9: no ligand, 2.14 × 10^–4 M FeCl3, [H2O2]0 3.4 × 10^–2 M
[12] = 0.15 M NaClO4, 298.1 K, potentiometry
[13] = entry 12: ligand alone 2.14 × 10^–4, no metal ion, [H2O2]0 3.4 × 10^–2 M

SMILES: [Cu+2].[O-][Cl+3]([O-])([O-])[O-].[O-][Cl+3]([O-])([O-])[O-] [Cu(ClO4)2]
TON (moles of H2O2 decomposed by one mol of metal ions) [1, 9]: 0
nO2(g) [1, 9]: 0 mol
k cat (SOD catalytic constant) [2]: 2.7 10^6 M^–1 s^–1

SMILES: [Cl][Fe]([Cl])[Cl] [FeCl3]
TON (moles of H2O2 decomposed by one mol of metal ions) [1, 11]: 0
nO2(g) [1, 11]: 0 mol

The next lines start with results.

TON (moles of H2O2 decomposed by one mol of metal ions) [1, 10]: 0
nO2(g) [1, 10]: 0 mol
SMILES: O=S(=O)([O-])[O-].[Fe+2] [Fe(SO4)]

pCu ([3]; pH 7.4, [L]=[M]=1 µM): 9.80
pCu ([3]; pH 7.4, [L]=[M]=10 µM): 9.30
SMILES: O=C(O)c1cc2nc(c1)CNCCNCCNC2 [^ COOH PyNH 3]
SOD activity of the Fe2+ complexes (in words) [4]: negligible SOD activity
increase in the SOD catalytic constant of the Cu2+ complex on functionalization of the pyridine [4]: 6- to 10 fold
log K, H2L^(2+x)++H^+⇄H3L^(3+x)+ (stepwise protonation constant) [5]: 2.25(2)
log K, HL^(1+x)++H^+⇄H2L^(2+x)+ (stepwise protonation constant) [5]: 7.90(1)
log K, L^x+H^+⇄HL^(1+x)+ (stepwise protonation constant) [5]: 10.80(1) ^d
log β (∑log K, protonation) [5]: 20.95
log K, Cu+L⇄[CuL] (stability constant) [6]: 17.62(2) ^c, ^d
log K, [CuL]+H2O⇄[CuL(OH)]+H [6]: –9.07(2) ^c
log K, Cu+L⇄[CuL] (stability constant) ([6]; listed as COOHPyNH3): 17.62
k cat (SOD catalytic constant) [2]: 9.7 10^6 M^–1 s^–1

log β (∑log K, protonation) ([7]; 0.15 M NaClO4, 298.1 K): 21.53
log K, H2L^(2+x)++H^+⇄H3L^(3+x)+ (stepwise protonation constant) [7, 12]: 2.90(4)
log K, HL^(1+x)++H^+⇄H2L^(2+x)+ (stepwise protonation constant) [7, 12]: 7.73(3)
log K, L^x+H^+⇄HL^(1+x)+ (stepwise protonation constant) [7, 12]: 10.90(2)
three protonation constants, span from first to third ([7]; potentiometric titrations (third constant of COOMePyNMe3 by UV)): 10.90 to 2.90 logarithmic units
log K, Cu+L⇄[CuL] (stability constant) ([3]; 0.15 M NaClO4, 298.1 K): 16.35(4)
log K, [CuL]+H2O⇄[CuL(OH)]+H ([3]; 0.15 M NaClO4, 298.1 K): –9.24(7)
log K, Cu+L⇄[CuL] (stability constant) ([3]; 0.15 M NaClO4, 298.1 K, listed as COOHPyNMe3): 16.35
pCu ([3]; pH 7.4, [L]=[M]=1 µM): 9.18
pCu ([3]; pH 7.4, [L]=[M]=10 µM): 8.68
log K, Fe+L⇄[FeL] (stability constant) ([8]; 0.15 M NaClO4, 298.1 K): 10.02(2)
log K, [FeL]+H2O⇄[FeL(OH)]+H ([8]; 0.15 M NaClO4, 298.1 K): –9.44(4)
pFe ([8]; pH 7.4, [L]=[M]=1 µM): 6.22
pFe ([8]; pH 7.4, [L]=[M]=10 µM): 5.58
free Fe2+ ([8]; pH 7.5, [COOHPyNMe3]=[Fe2+]=50 µM, 0.15 M NaClO4 (Figure S19)): 10.9%
free Fe2+ ([8]; pH 7.5, [COOHPyNMe3]=[Fe2+]=270 µM, 0.15 M NaClO4 (Figure S18)): 4.8%
TON (moles of H2O2 decomposed by one mol of metal ions) [1, 13]: 0
nO2(g) [1, 13]: 0 mol
SMILES: CN1CCN(C)Cc2cc(C(=O)O)cc(n2)CN(C)CC1 [^ COOH PyNMe 3]
SOD activity of the Fe2+ complexes (in words) [4]: negligible SOD activity
k cat (SOD catalytic constant) ([4]; metal complexes, calculated from IC50 as kNBT[NBT]/IC50, pH 7.4, [NBT] = 59 μM): 12.3 10^6 M^–1 s^–1
increase in the SOD catalytic constant of the Cu2+ complex on functionalization of the pyridine [4]: 6- to 10 fold

From article PMC12458691 (Inorganic Chemistry, 2025)
